Measured values taken from patent US20020010125A1, “Assay for agents that induce chemokinesis” (priority 2000, published 2002).
“Also recorded” adds a separate entry of the source.

Experiments:
[1] = test system: chronic lymphocytic leukemia cells; test: Chemokinesis: migration of chronic lymphocytic leukemia cells through a membrane, no etodolac or chemokine in lower well; type: cell-based, human; settings: overnight incubation at 200 μmol concentration, versus cells without etodolac; FIG. 1
Protocol: Cell migration was measured in a 24-well modified Boyden chamber (Transwell, Corning-Costar, N.Y.). The recombinant human IP-10 chemokine (R&D Systems, McKinley Place, Nebr.) was diluted in RPMI-1640 medium at 200 ng/ml, and used to evaluate the chemotactic properties of lymphocytes from B-CLL patients. Polycarbonate membranes with pore size of 3 μm were used. A total of […] of chemokines or control medium was added to the bottom wells, and […] of 2 to 5.0×10^6 cells/ml cells resuspended in RPMI-1640 were added to the top wells. […] The membranes were then removed, and the cells present on the bottom well were quantified by flow cytometry. For cell quantification, a fixed acquisition time of 30 seconds was used per sample, and beads were run during each experiment to ensure a reproducible acquisition. All assays were performed in triplicate. B-Chronic lymphocytic leukemia (B-CLL) cells were pre-incubated in the presence of various concentrations of etodolac for 16 hours, prior to loading in the upper part of a modified Boyden chamber with pore size of 3 μm. The lower reservoir contained either medium alone, or the CXCR3-binding chemokine IFN-inducible protein 10 (IP-10, 200 ng/ml). After 2 hours of incubation, the cells that traveled through the polycarbonate membrane were enumerated by flow cytometry. […] Control cells were incubated in the same medium without etodolac. The cells were then added to the upper wells of chemotaxis chambers divided by a 5 to 8 micron membrane. No etodolac was present in the lower portion of each well. FIG. 1 provides a graph of the number of chronic lymphocytic leukemia cells crossing through the membranes into the lower well.

[2] = test system: peripheral blood lymphocytes; test: Chemokinesis: migration of peripheral blood lymphocytes through a membrane, no etodolac in lower well; type: cell-based, human; settings: overnight incubation at 250 μM, versus cells without etodolac; FIG. 2
Protocol: Cell migration was measured in a 24-well modified Boyden chamber (Transwell, Corning-Costar, N.Y.). The recombinant human IP-10 chemokine (R&D Systems, McKinley Place, Nebr.) was diluted in RPMI-1640 medium at 200 ng/ml, and used to evaluate the chemotactic properties of lymphocytes from B-CLL patients. Polycarbonate membranes with pore size of 3 μm were used. A total of […] of chemokines or control medium was added to the bottom wells, and […] of 2 to 5.0×10^6 cells/ml cells resuspended in RPMI-1640 were added to the top wells. […] The membranes were then removed, and the cells present on the bottom well were quantified by flow cytometry. For cell quantification, a fixed acquisition time of 30 seconds was used per sample, and beads were run during each experiment to ensure a reproducible acquisition. All assays were performed in triplicate. Peripheral blood lymphocytes were incubated overnight in medium containing a racemic mixture of etodolac, the R-enantiomer of etodolac or the S-enantiomer of etodolac at 250 μM concentration. Control cells were incubated in the same medium without etodolac. The cells were then added to the upper wells of chemotaxis chambers divided by a 5 to 8 micron membrane. No etodolac was present in the lower portion of each well. FIG. 2 provides a graph of the number of peripheral blood lymphocytes crossing through the membranes into the lower well.

B-CLL cells [3] = settings: for chemotactic response of B-CLL cells to IP-10: overnight incubation at 12.5 μM to 500 μM, B-CLL patients n=4, FIG. 3
[4] = test system: peripheral blood lymphocytes; settings: for number of peripheral blood lymphocytes migrating through the membrane to IP-10: overnight incubation at 0 μM to 500 μM, FIG. 4
[5] = test system: Chronic lymphocytic leukemia (B-CLL) cells; test: B-CLL colony morphology, aggregation and viability by light microscopy; type: cell-based, human; settings: 24 hours
Protocol: Chronic lymphocytic leukemia (B-CLL) cells were incubated for 24 hr in medium containing the R-enantiomer of etodolac at 0.0 μM, 100 μM and 250 μM. concentrations. The cell morphology was observed under light microscopy. Control cells incubated without etodolac grew in large, flat colonies (FIG. 6A). However, after incubation for 24 hours with either 100 μM or 250 μM.

[6] = test system: Colon cancer cells (HCT-116); test: Actin filament staining (phalloidin) and cell shape in colon cancer cells; type: cell-based; settings: 500 μM, 5 hours; FIG. 7B
Protocol: Colon cancer cells (HCT-116) were incubated for 5 hours with either no etodolac (control cells) or 500 μM. R-etodolac (test cells). The cells were then fixed and the intracellular actin filaments were stained with phalloidan conjugated to a fluorogenic dye (Alexa-green). The control cells (FIG. 7A) had actin filaments arranged in rigid structures (stress fibers) that confer the “stretched” shape often seen in normal cells.

[7] = test system: peripheral blood leukocytes; test: Peripheral blood leukocyte counts in normal mice after etodolac by gastric lavage; type: in vivo; settings: blood at 4 hr, 24 hr, 158 hr and 14 days, FIG. 5
Protocol: Normal mice were given 25 mg/kg etodolac or 100 mg/kg etodolac by gastric lavage. Control mice received no etodolac. Blood was drawn from each mouse at 4 hr, 24 hr, 158 hr and 14 days after etodolac administration and peripheral blood leukocyte counts were done.

B-CLL cells [8] = test: Ex vivo viability (erythrosin B) of B-CLL cells isolated from patients before and after etodolac challenge; type: in vivo, human; settings: for % Increased cell death: after versus before etodolac
From the text: Written informed consent was obtained to procure peripheral blood from all patients and with normal healthy volunteers. Patients had to have B-CLL according to National Cancer Institute (NCI) criteria of any Rai stage. Criteria for requiring therapy were as follows: disease-related symptoms, anemia and/or thrombocytopenia, bulky lymphadenopathy, and/or clinically relevant splenomegaly. Mononuclear cells were isolated by gradient centrifugation through Ficoll-Paque. […] At the indicated times, viability assays were performed by erythrosin B dye exclusion. To determine if etodolac could reduce B-CLL survival in vivo, six B-CLL patients were enrolled in a first step challenge assay for etodolac sensitivity. Each patient received one 400 mg etodolac tablet, and a second tablet 12 hours later. B-CLL cells were isolated just before the first tablet, and 12 hours after the second. B-CLL cells recovered from patients were then cultured with 20% autologous plasma and apoptosis rates were measured, either before or after etodolac treatment. […] The five etodolac-sensitive patients were then enrolled in a second-step clinical trial in which they took etodolac for one month (400 mg bid). […] After 72 hour of incubation, viability assays were performed by erythrosin B staining. Numbers indicate the % of viable cells.

[9] = test system: circulating lymphocyte counts; test: Clinical trial of etodolac in B-CLL patients: circulating lymphocyte counts, lymphadenopathy; type: in vivo, human
Protocol: To determine if etodolac could reduce B-CLL survival in vivo, six B-CLL patients were enrolled in a first step challenge assay for etodolac sensitivity. Each patient received one 400 mg etodolac tablet, and a second tablet 12 hours later. B-CLL cells were isolated just before the first tablet, and 12 hours after the second. B-CLL cells recovered from patients were then cultured with 20% autologous plasma and apoptosis rates were measured, either before or after etodolac treatment. […] The five etodolac-sensitive patients were then enrolled in a second-step clinical trial in which they took etodolac for one month (400 mg bid).

## CCc1cccc2c3c([nH]c12)[C@](CC)(CC(=O)O)OCC3 [S-etodolac]
[1]
  number of chronic lymphocytic leukemia cells crossing through the membranes into the lower well: more cells migrated through the membrane
[2]
  number of peripheral blood lymphocytes crossing through the membranes into the lower well: did not induce substantial chemokinesis
B-CLL cells [3]
  chemotactic response of B-CLL cells to IP-10: enhanced B-CLL chemotaxis
[4]
  number of peripheral blood lymphocytes migrating through the membrane to IP-10: less cell migration than did the racemic mixture

## CCc1cccc2c3c([nH]c12)[C@@](CC)(CC(=O)O)OCC3 [R-etodolac]
[1]
  number of chronic lymphocytic leukemia cells crossing through the membranes into the lower well: more cells migrated through the membrane
[2]
  number of peripheral blood lymphocytes crossing through the membranes into the lower well: did not induce substantial chemokinesis
[5]; 100 μM or 250 μM
  total number of B-CLL cells or their viability: No effect
[5]; 100 μM, FIG. 6B
  B-CLL cell movement and colony morphology: the cells migrated toward each other, the diameter of the colonies was reduced, and multiple layers of cells were present in the colonies
[5]; 250 μM, FIG. 6C
  B-CLL cell movement and colony morphology: the cells migrated toward each other and the diameter of the colonies was reduced; also recorded: the cells migrated even more toward each other, the diameter of the colonies was even further reduced and even more layers of cells were present in the colonies
[6]
  actin filaments and cell shape of HCT-116 cells: no conventional stress fibers are observed and the cells assume a rounded shape
B-CLL cells [3]
  chemotactic response of B-CLL cells to IP-10: enhanced B-CLL chemotaxis
[4]
  number of peripheral blood lymphocytes migrating through the membrane to IP-10: less cell migration than did the racemic mixture

## CCc1cccc2c3c([nH]c12)C(CC)(CC(=O)O)OCC3 (racemic) [etodolac]
[1]
  number of chronic lymphocytic leukemia cells crossing through the membranes into the lower well: more cells migrated through the membrane
[2]
  number of peripheral blood lymphocytes crossing through the membranes into the lower well: more cells migrated through the membrane
[7]; 25 mg/kg by gastric lavage
  number of peripheral blood leukocytes: reduced
[7]; 100 mg/kg by gastric lavage
  number of peripheral blood leukocytes: reduced
B-CLL cells [8]; patient #1
  % Increased cell death: 13%
B-CLL cells [8]; patient #2
  % Increased cell death: 57%
B-CLL cells [8]; patient #3
  % Increased cell death: 69%
B-CLL cells [8]; patient #4
  % Increased cell death: 0%
B-CLL cells [8]; patient #5
  % Increased cell death: 34%
B-CLL cells [8]; patient #6
  % Increased cell death: 41%
B-CLL cells [8]; six B-CLL patients, two 400 mg tablets 12 hours apart
  patients whose cells displayed more ex vivo spontaneous apoptosis after in vivo etodolac challenge than before: 5 out of 6
[9]; B-CLL patients on etodolac therapy
  changes in lymphadenopathy: did not have clinically obvious changes in lymphadenopathy
[9]; after one month of 400 mg bid
  B-CLL counts when etodolac treatment was interrupted: rebounded to pre-treatment levels
[9]; two retreated B-CLL patients, over one month, results not shown
  drop of circulating lymphocyte counts: ~50%
B-CLL cells [3]; B-CLL cells, data not shown
  expression of the CXCR receptor, as assessed by antibody staining: not due to increased expression of the CXCR receptor
B-CLL cells [3]; human, 16 h
  concentration at which chemotaxis of B-CLL cells decreased, due to a loss of cell viability: ≥ 500 µM
B-CLL cells [3]
  chemotactic response of B-CLL cells to IP-10: increased the chemotactic response
[4]; IP-10 in lower well
  etodolac concentration up to which the number of migrating peripheral blood lymphocytes increased: 100 µM
[4]; human
  concentration at which chemotaxis of peripheral blood lymphocytes decreased, due to a loss of cell viability: ≥ 250 µM
[4]
  number of peripheral blood lymphocytes migrating through the membrane to IP-10: increased with etodolac concentration
